The text below walks through data of patent publication US20130096050A1 (Longevity Biotech, Inc., priority 2010, published 2013).

pEC50, pIC50: −log10 of the molar value. “Also recorded” adds a separate entry of the source.

Data set [1] concerns calcitonin receptors. The note with it: amylin receptor vs calcitonin receptors; cited from earlier work.
Data set [2] deals with amylin receptor. As to conditions: read-out: IC50, amylin receptor antagonist; cited from earlier work.
For data set [3], the target named is CGRP receptors (Homo sapiens, UniProt O60894+Q16602). The note with it: amylin receptor vs CGRP receptors; cited from earlier work.
For data set [4] the following is noted: humans; cited from earlier work.
Data set [5] concerns the target T1, VIPR2 (VPAC2) (Homo sapiens, UniProt P41587).
T1 construct: host or cells: cAMP Hunter cell line (CHO-K1 is named only in the prophetic b955)
T1 sequence (P41587 24-438): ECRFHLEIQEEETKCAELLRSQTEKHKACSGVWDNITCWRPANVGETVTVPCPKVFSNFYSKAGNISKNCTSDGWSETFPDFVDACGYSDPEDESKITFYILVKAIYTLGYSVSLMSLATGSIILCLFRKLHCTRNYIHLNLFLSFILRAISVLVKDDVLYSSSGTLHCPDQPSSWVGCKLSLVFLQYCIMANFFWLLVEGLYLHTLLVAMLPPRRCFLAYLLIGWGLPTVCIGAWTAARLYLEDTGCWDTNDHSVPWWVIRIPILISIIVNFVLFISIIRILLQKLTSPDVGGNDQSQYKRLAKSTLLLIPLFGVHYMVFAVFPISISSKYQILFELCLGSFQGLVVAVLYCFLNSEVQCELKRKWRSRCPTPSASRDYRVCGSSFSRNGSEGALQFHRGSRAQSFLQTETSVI
Briefly: cAMP Hunter cell line functional assay, agonist mode (DiscoveRx HitHunter cAMP XS+). Format: cell-based. As to conditions: FIG. 3. Here is the method: (§1) Once it was established that the cells were healthy and growing normally, cells were passaged from flasks using cell dissociation reagent buffer and seeded into white walled clear bottom 384-well microplates for compound profiling. For profiling, cells were seeded at a density of 10,000 cells per well in a total volume of 20 μL and were allowed to adhere and recover overnight prior to compound addition. cAMP modulation was determined using the DiscoveRx HitHunter cAMP XS+ assay.
(§2) For profiling compound in agonist mode, the cells were incubated in the presence of compound at 37° C. for 30 minutes. […] After appropriate compound incubation, assay signal was generated through incubation with DiscoverX lysis cocktail according to the manufacturers standard protocol. Dose curves were plotted using GraphPad Prism or Activity Base. Percentage activity is calculated using the following formula:
(§3) % Activity=100%×(mean RLU of test sample−mean RLU of vehicle control)/(mean RLU of MAX control−mean RLU of vehicle control).

In data set [6] the target is T2, VIPR1 (VPAC1) (Homo sapiens, UniProt P32241).
T2 sequence (P32241 31-457): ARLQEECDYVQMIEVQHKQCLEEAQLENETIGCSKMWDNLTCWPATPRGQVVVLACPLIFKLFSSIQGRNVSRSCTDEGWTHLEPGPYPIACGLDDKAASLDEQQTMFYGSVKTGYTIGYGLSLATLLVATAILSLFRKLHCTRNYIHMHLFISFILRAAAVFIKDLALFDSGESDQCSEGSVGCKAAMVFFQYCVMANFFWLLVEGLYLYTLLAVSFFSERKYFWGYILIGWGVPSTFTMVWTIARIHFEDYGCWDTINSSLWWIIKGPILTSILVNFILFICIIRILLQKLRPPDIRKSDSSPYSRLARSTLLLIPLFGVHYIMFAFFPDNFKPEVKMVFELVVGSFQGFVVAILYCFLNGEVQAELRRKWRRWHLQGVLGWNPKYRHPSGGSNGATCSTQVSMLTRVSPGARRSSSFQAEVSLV
Described as above. Format: cell-based. The note with it: for Mean RLU: cAMP, VIPR1 cells. As for the experimental part:
as §1, §2, §3

In data set [7] the target is neurotensin receptors. The note with it: rat brain receptors; read-out: IC50, inhibition of {Trp11}-NT binding; cited from earlier work.

Sequence of CGRP receptors (Q16602 23-461): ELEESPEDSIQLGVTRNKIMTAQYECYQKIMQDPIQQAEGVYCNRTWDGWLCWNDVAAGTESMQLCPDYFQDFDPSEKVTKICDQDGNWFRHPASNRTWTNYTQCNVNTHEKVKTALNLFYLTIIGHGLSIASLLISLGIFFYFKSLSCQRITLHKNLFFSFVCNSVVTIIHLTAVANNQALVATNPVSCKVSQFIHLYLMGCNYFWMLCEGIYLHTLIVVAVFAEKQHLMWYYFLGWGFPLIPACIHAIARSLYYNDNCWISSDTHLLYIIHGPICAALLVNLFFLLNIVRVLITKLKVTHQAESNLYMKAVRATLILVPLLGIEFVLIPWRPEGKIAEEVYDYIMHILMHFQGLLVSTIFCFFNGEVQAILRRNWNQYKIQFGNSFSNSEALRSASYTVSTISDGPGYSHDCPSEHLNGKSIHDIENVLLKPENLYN
Sequence of CGRP receptors (O60894 27-148 partner): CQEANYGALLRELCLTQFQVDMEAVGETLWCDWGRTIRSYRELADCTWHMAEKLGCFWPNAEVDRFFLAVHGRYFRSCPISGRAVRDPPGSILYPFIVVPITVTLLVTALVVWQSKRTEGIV

The pIC50 is the IC50 on a negative log10 scale, so that one unit is a factor of ten. Regarding AC 187, the “selectivity over calcitonin receptors” value in data set [1] was 38 fold. Further, the pIC50 in data set [2] was 9.32. For the same substance, in data set [3], the “selectivity over CGRP receptors” value is listed as 400 fold.

With “GLP-1: glucagon-like peptide-1, a product of the proglucagon gene, gut hormone (HDEFERHAEGTFTSDVSSYLEGQAAQGFIAWLVKGRG)”, the plasma half-life in data set [4] is 2 min.

As for “HSDAVFTDNYXRLZKQLXVKZYLNX ILN [Compound 8]”, in data set [5], the “activation of / interaction with VIPR2 (in words)” value was “not activate; also recorded: does not interact substantially”. The “Mean RLU” value worked out at 13700.0 RLU in data set [6] (1.03E−08 M); 13500.0 RLU in data set [6] (1.03E−09 M); 9960.0 RLU in data set [6] (1.03E−10 M); 10500.0 RLU in data set [6] (1.03E−11 M); 10340.0 RLU in data set [6] (1.03E−12 M); 112320.0 RLU in data set [6] (5.03E−07 M). Further, the “Mean RLU” value is on record as 96460.0 RLU in data set [6] (5.03E−08 M), 13200.0 RLU in data set [6] (5.03E−09 M) and 9520.0 RLU in data set [6] (5.03E−10 M). The “activation of VIPR1 (in words)” value in data set [6] (FIG. 3) is reported as “fully activate”. In addition, the pEC50 in data set [6] (cAMP readout, 37° C. for 30 minutes, read-out: EC50 (peptide concentration for 50% VIPR1 activation)) was 7.55.

On to Neuromedin N, for which, in data set [7], the pIC50 was 7.78.
